For 24 molecules, IC50 results are on record in patent US9546156B2, “N-bicyclic aryl,N'-pyrazolyl urea, thiourea, guanidine cyanoguanidine compounds as TrkA kinase inhibitors” (Array BioPharma Inc., priority 2012, dated 2017).

Counter-ions that a name gives are not always drawn.

In this test the target is T1, His-tagged recombinant human TrkA (Homo sapiens, UniProt P04629).
T1 construct: 6HIS tagged cytoplasmic domain from Invitrogen, Catalog No. PV3144; purchased Invitrogen PV3144
T1 sequence (P04629 440-796 limits assumed): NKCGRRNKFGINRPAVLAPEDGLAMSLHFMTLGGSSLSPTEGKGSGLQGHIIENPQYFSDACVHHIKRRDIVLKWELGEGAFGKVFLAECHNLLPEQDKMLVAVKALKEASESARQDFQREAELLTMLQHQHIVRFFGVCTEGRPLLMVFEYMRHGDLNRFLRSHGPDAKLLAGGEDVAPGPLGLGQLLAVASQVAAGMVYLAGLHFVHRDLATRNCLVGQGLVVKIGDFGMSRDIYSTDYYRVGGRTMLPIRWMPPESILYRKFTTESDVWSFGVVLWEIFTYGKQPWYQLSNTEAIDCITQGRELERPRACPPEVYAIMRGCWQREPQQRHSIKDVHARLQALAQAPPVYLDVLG
The test is described as follows: TrkA LanthaScreen Eu Kinase Binding Assay. The following applies: averaged IC50; TR-FRET binding assay, 60 min, 22° C.; read-out: TrkA Enzyme IC50. The procedure:
TrkA binding activity was determined in a TrkA LanthaScreen™ Eu Kinase Binding Assay. 5 nM His-tagged recombinant human TrkA (6HIS tagged cytoplasmic domain from Invitrogen, Catalog No. PV3144) was incubated with 4 nM Alexa-Fluor® Tracer 236 (Invitrogen Cat. No. PV5592), 2 nM biotinylated anti-His (Invitrogen Cat. No. PV6090), and 2 nM europium-labeled Streptavidin (Invitrogen Cat. No. PV5899), in buffer (25 mM MOPS, pH 7.5, 5 mM MgCl2, 0.005% Triton X-100). Three fold serial dilutions of compounds of the invention in DMSO were added to a final percentage of 2% DMSO. After 60-minute incubation at 22° C., the reaction was measured using the EnVision multimode plate reader (PerkinElmer) via TR-FRET dual wavelength detection at […]. The percent of control was calculated using a ratiometric emission factor. The IC50 values were determined by fitting a four parameter model to the percent of control data.
Table A provides averaged IC50 values for compounds of the invention when tested in the assay of Example A, where A represents an averaged IC50 value <100 nM; B represents an averaged IC50 value from 100 to 1,000 nM; and C represents an averaged IC50 value from 1,000 to 10,000 nM.
(In general: In TR-FRET formats the signal depends on donor and acceptor labels being close together.)
Broadly, the IC50 is the concentration needed to halve the response being measured. On to `Cc1c(-c2ccc(=O)n(C)c2)nn(-c2ccccc2)c1NC(=O)Nc1cncc2ccccc12` [Example 25, 1-(isoquinolin-4-yl)-3-(4-methyl-3-(1-methyl-6-oxo-1,6-dihydropyridin-3-yl)-1-phenyl-1H-pyrazol-5-yl)urea], for which the 50% inhibitory concentration (IC50) is 100 to 1000 nM.

Take `Cc1c(C2CCN(CC(F)(F)F)CC2)nn(-c2ccccc2)c1NC(=O)Nc1ccc(Cl)c2ccccc12` [Example 13, 1-(4-chloronaphthalen-1-yl)-3-(4-methyl-1-phenyl-3-(1-(2,2,2-trifluoroethyl)piperidin-4-yl)-1H-pyrazol-5-yl)urea]: the IC50 was less than 100 nM.

Take `Cc1c(-c2ccc(=O)n(C)c2)nn(-c2ccccc2)c1NC(=O)Nc1ccc(Cl)c2ccccc12` [Example 1, 1-(4-chloronaphthalen-1-yl)-3-(4-methyl-3-(1-methyl-6-oxo-1,6-dihydropyridin-3-yl)-1-phenyl-1H-pyrazol-5-yl)urea]: the IC50 was less than 100 nM.

`COCc1cc2c(NC(=O)Nc3c(C)c(-c4cnn(C)c4)nn3-c3ccccc3)c(Cl)ccc2cn1` [Example 4, 1-(6-chloro-3-(methoxymethyl)isoquinolin-5-yl)-3-(1′,4-dimethyl-1-phenyl-1H,1′H-[3,4′-bipyrazol]-5-yl)urea]: the IC50 was in the range of 100 to 1000 nM.

As to `Cc1c(-c2cnn(C)c2)nn(-c2ccccc2)c1NC(=O)Nc1cccc2ccccc12` [Example 10, 1-(1′,4-dimethyl-1-phenyl-1H,1′H-[3,4′-bipyrazol]-5-yl)-3-(naphthalen-1-yl)urea], the IC50 fell in the range of 100 to 1000 nM.

Turning to `COCc1ccc2c(Cl)ccc(NC(=O)Nc3c(C)c(C4CCN(C)CC4)nn3-c3ccccc3)c2c1` [Example 20, 1-(4-chloro-7-(methoxymethyl)naphthalen-1-yl)-3-(4-methyl-3-(1-methylpiperidin-4-yl)-1-phenyl-1H-pyrazol-5-yl)urea hydrochloride], the IC50 is less than 100 nM.

For `O=C(Nc1ccc(Cl)c2ccccc12)Nc1c(Cl)c(OCC2CCNCC2)nn1-c1ccccc1` [Example 11, 1-(4-chloro-1-phenyl-3-(piperidin-4-ylmethoxy)-1H-pyrazol-5-yl)-3-(4-chloronaphthalen-1-yl)urea hydrochloride], the half-maximal inhibitory concentration (IC50) is less than 100 nM.

As to `COCc1cc2c(NC(=O)Nc3c(C)c(-c4cnn(C)c4)nn3-c3ccccc3)cccc2cn1` [Example 3, 1-(1′,4-dimethyl-1-phenyl-1H,1′H-[3,4′-bipyrazol]-5-yl)-3-(3-(methoxymethyl)isoquinolin-5-yl)urea trifluoroacetate], the IC50 was less than 100 nM.

As for `Cc1c(C2CCN(C)CC2)nn(-c2ccccc2)c1NC(=O)Nc1ccc(Cl)c2ccccc12` [Example 14, 1-(4-chloronaphthalen-1-yl)-3-(4-methyl-3-(1-methylpiperidin-4-yl)-1-phenyl-1H-pyrazol-5-yl)urea hydrochloride], the IC50 is less than 100 nM.

As for `COCc1cc2c(NC(=O)Nc3c(C)c(-c4cnn(C)c4)nn3-c3ccccc3)ccc(Br)c2cn1` [Example 5, 1-(8-bromo-3-(methoxymethyl)isoquinolin-5-yl)-3-(1′,4-dimethyl-1-phenyl-1H,1′H-[3,4′-bipyrazol]-5-yl)urea], the IC50 was less than 100 nM.

Turning to `COCc1ccc2c(Cl)ccc(NC(=O)Nc3c(C)c(-c4ccc(=O)n(C)c4)nn3-c3ccccc3)c2c1` [Example 21, 1-(4-chloro-7-(methoxymethyl)naphthalen-1-yl)-3-(4-methyl-3-(1-methyl-6-oxo-1,6-dihydropyridin-3-yl)-1-phenyl-1H-pyrazol-5-yl)urea], the IC50 is less than 100 nM.

`Cc1c(-c2cnn(C)c2)nn(-c2ccccc2)c1NC(=O)Nc1cncc2ccccc12` [Example 24, 1-(1′,4-dimethyl-1-phenyl-1H,1′H-3,4′-bipyrazol-5-yl)-3-(isoquinolin-4-yl)urea]: the 50% inhibitory concentration (IC50) lay within 1000 to 10000 nM.

With `COCc1cc2c(NC(=O)Nc3c(C)c(-c4cnn(C)c4)nn3-c3ccccc3)ccc(Cl)c2cn1` [Example 6, 1-(8-chloro-3-(methoxymethyl)isoquinolin-5-yl)-3-(1′,4-dimethyl-1-phenyl-1H,1′H-[3,4′-bipyrazol]-5-yl)urea], the IC50 is less than 100 nM.

As to `COCc1ccc2c(Cl)ccc(NC(=O)Nc3c(C)c(-c4cnn(C)c4)nn3-c3ccccc3)c2c1` [Example 19, 1-(4-chloro-7-(methoxymethyl)naphthalen-1-yl)-3-(1′,4-dimethyl-1-phenyl-1H,1′H-[3,4′-bipyrazol]-5-yl)urea], the concentration for half-maximal inhibition (IC50) is less than 100 nM.

Turning to `Cc1c(C2CCNCC2)nn(-c2ccccc2)c1NC(=O)Nc1ccc(Cl)c2ccccc12` [Example 12, 1-(4-chloronaphthalen-1-yl)-3-(4-methyl-1-phenyl-3-(piperidin-4-yl)-1H-pyrazol-5-yl)urea hydrochloride], the concentration for half-maximal inhibition (IC50) is less than 100 nM.

Turning to `Cc1c(C(N)=O)nn(-c2ccccc2)c1NC(=O)Nc1ccc(Cl)c2ccccc12` [Example 7, 5-(3-(4-chloronaphthalen-1-yl)ureido)-4-methyl-1-phenyl-1H-pyrazole-3-carboxamide], the IC50 was less than 100 nM.

Regarding `O=C(Nc1ccc(Cl)c2ccccc12)Nc1c2c(nn1-c1ccccc1)CCC2` [Example 2, 1-(4-chloronaphthalen-1-yl)-3-(2-phenyl-2,4,5,6-tetrahydrocyclopenta[c]pyrazol-3-yl)urea], the IC50 was less than 100 nM.

Consider `Cc1c(-c2cnn(C)c2)nn(-c2ccccc2)c1NC(=O)Nc1ncc(Cl)c2ccccc12` [Example 23, 1-(4-chloroisoquinolin-1-yl)-3-(1′,4-dimethyl-1-phenyl-1H,1′H-[3,4′-bipyrazol]-5-yl)urea], for which the IC50 was 1000 to 10000 nM.

For the molecule `COC[C@H](O)COc1nn(-c2ccccc2)c(NC(=O)Nc2ccc(Cl)c3ccccc23)c1C` [Example 15, (S)-1-(4-chloronaphthalen-1-yl)-3-(3-(2-hydroxy-3-methoxypropoxy)-4-methyl-1-phenyl-1H-pyrazol-5-yl)urea], the half-inhibitory concentration (IC50) is less than 100 nM.

For the molecule `Cc1c(-c2cnn(C)c2)nn(-c2ccccc2)c1NC(=O)Nc1ccc(Cl)c2ccccc12` [Example 9, 1-(4-chloronaphthalen-1-yl)-3-(1′,4-dimethyl-1-phenyl-1H,1′H-[3,4′-bipyrazol]-5-yl)urea], the IC50 is less than 100 nM.

On to `COCc1ccc2ccc(Cl)c(NC(=O)Nc3c(C)c(-c4cnn(C)c4)nn3-c3ccccc3)c2c1` [Example 18, 1-(2-chloro-7-(methoxymethyl)naphthalen-1-yl)-3-(1′,4-dimethyl-1-phenyl-1H,1′H-[3,4′-bipyrazol]-5-yl)urea], for which the half-inhibitory concentration (IC50) was less than 100 nM.

With `CNC(=O)c1nn(-c2ccccc2)c(NC(=O)Nc2ccc(Cl)c3ccccc23)c1C` [Example 8, 5-(3-(4-chloronaphthalen-1-yl)ureido)-N,4-dimethyl-1-phenyl-1H-pyrazole-3-carboxamide], the half-inhibitory concentration (IC50) was less than 100 nM.

Turning to `COCc1ccc2cccc(NC(=O)Nc3c(C)c(-c4ccc(=O)n(C)c4)nn3-c3ccccc3)c2c1` [Example 17, 1-(7-(methoxymethyl)naphthalen-1-yl)-3-(4-methyl-3-(1-methyl-6-oxo-1,6-dihydropyridin-3-yl)-1-phenyl-1H-pyrazol-5-yl)urea], the 50% inhibitory concentration (IC50) was less than 100 nM.

For the molecule `Cc1c(C2CCNCC2)nn(-c2ccccc2)c1NC(=O)Nc1ncc(Cl)c2ccccc12` [Example 22, 1-(4-chloroisoquinolin-1-yl)-3-(4-methyl-1-phenyl-3-(piperidin-4-yl)-1H-pyrazol-5-yl)urea hydrochloride], the IC50 is 1000 to 10000 nM.
